Experimental findings from patent publication US12139520B2 (priority 2020, dated 2024) are described below.

Bridge positions count the residues as written; N and C are the ends. Square brackets hold non-standard residues; d marks the D form. Peptide text beside a SMILES is read from it. Hyp = O=C(O)[C@@H]1C[C@@H](O)CN1; Cit = NC(=O)NCCC[C@H](N)C(=O)O

The target in series [1] is hAM1 receptor (Homo sapiens, UniProt O60895+Q16602). Nature of the series: cAMP assay for in vitro receptor activation, hAM1-R. The series is classed as cell-based. As to conditions: cAMP assay, hAM1 receptor; read-out: hAM1R EC50. A digest of the protocol:
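cAMP accumulation was measured in a monoclonal cell line stably overexpressing the hAM1 receptor. Frozen aliquots were thawed and plated at 8000 cells/well in DPBS containing 0.05% casein and 0.5 mM IBMX.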

The target of series [2] is T1, hAMY3 receptor (Homo sapiens, UniProt O60896+P30988).
T1 sequence (P30988 25-474): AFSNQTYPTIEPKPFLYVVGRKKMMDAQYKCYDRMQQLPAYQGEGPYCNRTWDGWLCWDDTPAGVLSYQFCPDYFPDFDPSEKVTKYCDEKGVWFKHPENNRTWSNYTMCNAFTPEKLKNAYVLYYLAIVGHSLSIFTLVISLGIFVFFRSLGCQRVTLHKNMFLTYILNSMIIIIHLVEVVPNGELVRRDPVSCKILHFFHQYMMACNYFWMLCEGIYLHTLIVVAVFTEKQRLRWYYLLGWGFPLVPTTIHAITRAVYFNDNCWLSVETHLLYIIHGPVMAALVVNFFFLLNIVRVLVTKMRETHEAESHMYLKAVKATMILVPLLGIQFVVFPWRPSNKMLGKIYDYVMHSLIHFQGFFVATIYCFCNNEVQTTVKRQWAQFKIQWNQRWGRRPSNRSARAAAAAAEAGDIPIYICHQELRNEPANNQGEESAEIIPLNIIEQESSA
T1 sequence (O60896 24-148 partner): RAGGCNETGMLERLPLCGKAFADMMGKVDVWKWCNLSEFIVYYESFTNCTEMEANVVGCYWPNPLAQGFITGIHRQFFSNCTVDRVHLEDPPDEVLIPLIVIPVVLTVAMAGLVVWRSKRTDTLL
Nature of the series: cAMP assay for in vitro receptor activation, hAMY3-R. The series is classed as cell-based. As to conditions: cAMP assay, hAMY3 receptor; read-out: hAMY3R EC50. A digest of the protocol:
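Thawed cells from a sub-cloned monoclonal hAMY3-overexpressing line are plated in DPBS containing 0.05% casein and 0.5 mM IBMX. Test compounds are added immediately at graded doses for 30 min at room temperature. Reagents for cAMP detection are then added, and TR-FRET is recorded after one hour.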

A short description of series [3]: Physical stability of peptide analogues (Thioflavin T fibrillation). The series is classed as physicochemical. As to conditions: maximum ThT signal normalized between hAMY maximum and buffer background; 40° C., shaking, four days; pH 7 per table title. In outline:
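Peptides in 50 mM sodium acetate pH 4 or 50 mM sodium phosphate pH 7 were preincubated 1 h, mixed with 4 μM ThT, held at 40° C with 700 rpm shaking before each read. Fluorescence (ex 450/em 480 nm) every 10 min for four days; LOESS-smoothed maximum signal normalized in percent between hAMY and buffer.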

Sequence of hAM1 receptor (Q16602 23-461): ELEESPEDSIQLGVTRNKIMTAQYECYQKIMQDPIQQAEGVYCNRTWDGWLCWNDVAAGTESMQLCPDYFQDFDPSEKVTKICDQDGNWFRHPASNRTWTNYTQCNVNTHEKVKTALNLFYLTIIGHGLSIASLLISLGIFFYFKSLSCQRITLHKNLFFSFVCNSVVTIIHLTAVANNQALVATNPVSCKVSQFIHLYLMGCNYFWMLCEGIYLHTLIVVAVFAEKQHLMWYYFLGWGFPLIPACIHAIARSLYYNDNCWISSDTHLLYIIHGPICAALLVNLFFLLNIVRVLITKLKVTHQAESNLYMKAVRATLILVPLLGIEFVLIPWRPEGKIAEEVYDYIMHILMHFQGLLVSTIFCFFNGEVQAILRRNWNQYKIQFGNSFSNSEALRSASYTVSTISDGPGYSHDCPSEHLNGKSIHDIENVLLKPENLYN
Sequence of hAM1 receptor (O60895 43-175 partner): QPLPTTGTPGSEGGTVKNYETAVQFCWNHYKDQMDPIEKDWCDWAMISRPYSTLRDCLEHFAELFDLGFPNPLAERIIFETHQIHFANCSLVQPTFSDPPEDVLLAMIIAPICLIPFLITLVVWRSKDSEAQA

With `CC[C@H](C)[C@H](NC(=O)[C@H](CCC(N)=O)NC(=O)[C@H](Cc1c[nH]cn1)NC(=O)[C@H](C)NC(=O)[C@H](CC(C)C)NC(=O)[C@H](CCCNC(=N)N)NC(=O)[C@H](CCC(N)=O)NC(=O)[C@@H](NC(=O)[C@@H](NC(=O)[C@@H]1CSSC[C@H](NC(=O)CN)C(=O)N[C@@H](CCCNC(=N)N)C(=O)N[C@@H](CCSC)C(=O)NCC(=O)N[C@@H]([C@@H](C)O)C(=O)N1)[C@@H](C)O)C(C)C)C(=O)N[C@@H](Cc1ccc(O)cc1)C(=O)N[C@@H](CCC(N)=O)C(=O)N[C@@H](Cc1ccccc1)C(=O)N[C@H](C(=O)N[C@@H](CC(N)=O)C(=O)N[C@@H](CCCCN)C(=O)N[C@@H](CC(=O)O)C(=O)N[C@@H](CCCCN)C(=O)N[C@@H](CC(=O)O)C(=O)N[C@@H](CC(N)=O)C(=O)N[C@H](C(=O)N[C@@H](C)C(=O)N1CCC[C@H]1C(=O)N[C@@H](CCCNC(=N)N)C(=O)N[C@@H](CO)C(=O)N[C@@H](CCCCN)C(=O)N[C@H](C(=O)N[C@@H](CO)C(=O)N1CCC[C@H]1C(=O)N[C@@H](CCC(N)=O)C(=O)N[C@H](C(=O)N1C[C@H](O)C[C@H]1C(N)=O)[C@@H](C)O)[C@@H](C)CC)C(C)C)[C@@H](C)O` [compound 192] (H-GCRMGTCTVQRLAHQIYQFTNKDKDNVAPRSKISPQT[Hyp]-NH2; disulfide 2-7; N-terminus assumed), the EC50 was over 5000 nM in series [1] and 0.098 nM in series [2]. Besides, the “Max ThT signal (%)” value in series [3] was determined as 4.100%.
With `CC[C@H](C)[C@H](NC(=O)[C@H](CCC(N)=O)NC(=O)[C@H](Cc1c[nH]cn1)NC(=O)[C@H](C)NC(=O)[C@H](CC(C)C)NC(=O)[C@H](CCCNC(N)=O)NC(=O)[C@H](CCC(N)=O)NC(=O)[C@@H](NC(=O)[C@@H](NC(=O)[C@@H]1CSSC[C@H](NC(=O)[C@@H](N)CCCCN)C(=O)N[C@@H](CC(N)=O)C(=O)N[C@@H]([C@@H](C)O)C(=O)N[C@@H](C)C(=O)N[C@@H]([C@@H](C)O)C(=O)N1)[C@@H](C)O)C(C)C)C(=O)N[C@@H](Cc1ccc(O)cc1)C(=O)N[C@@H](CCC(N)=O)C(=O)N[C@@H](Cc1ccccc1)C(=O)N[C@H](C(=O)N[C@@H](CC(=O)O)C(=O)N[C@@H](CCCCN)C(=O)N[C@@H](CC(=O)O)C(=O)N[C@@H](CCCCN)C(=O)N[C@@H](CC(=O)O)C(=O)N[C@@H](CC(N)=O)C(=O)N[C@H](C(=O)N[C@@H](C)C(=O)N1CCC[C@H]1C(=O)N[C@@H](C)C(=O)N[C@H](C(=O)N[C@@H](CC(N)=O)C(=O)N[C@H](C(=O)NCC(=O)N[C@@H](CO)C(=O)N[C@@H](CC(N)=O)C(=O)NCC(=O)N1C[C@H](O)C[C@H]1C(N)=O)C(C)C)[C@@H](C)O)C(C)C)[C@@H](C)O` [compound 252] (H-KCNTATCTVQ[Cit]LAHQIYQFTDKDKDNVAPATNVGSNG[Hyp]-NH2; disulfide 2-7; N-terminus assumed), the EC50 was over 5000 nM in series [1] and 0.006 nM in series [2]. For the same molecule, the “Max ThT signal (%)” value in series [3] stood at 27.550%.
On to `CC[C@H](C)[C@H](NC(=O)[C@H](CC(N)=O)NC(=O)[C@@H](NC(=O)[C@H](CCCNC(=N)N)NC(=O)[C@@H]1CCCN1C(=O)[C@H](C)NC(=O)[C@@H](NC(=O)[C@H](CC(N)=O)NC(=O)[C@H](CC(=O)O)NC(=O)[C@H](CCCCN)NC(=O)[C@H](CC(=O)O)NC(=O)[C@H](CCCCN)NC(=O)[C@H](CC(=O)O)NC(=O)[C@@H](NC(=O)[C@H](Cc1ccccc1)NC(=O)[C@H](CCC(N)=O)NC(=O)[C@H](Cc1ccc(O)cc1)NC(=O)[C@@H](NC(=O)[C@H](CCC(N)=O)NC(=O)[C@H](Cc1c[nH]cn1)NC(=O)[C@H](C)NC(=O)[C@H](CC(C)C)NC(=O)[C@H](CCCNC(N)=O)NC(=O)[C@H](CCC(N)=O)NC(=O)[C@@H](NC(=O)[C@@H](NC(=O)[C@@H]1CSSC[C@H](NC(=O)CN)C(=O)N[C@@H](CCCNC(=N)N)C(=O)N[C@@H]([C@@H](C)O)C(=O)NCC(=O)N[C@@H]([C@@H](C)O)C(=O)N1)[C@@H](C)O)C(C)C)[C@@H](C)CC)[C@@H](C)O)C(C)C)[C@@H](C)O)C(=O)NCC(=O)N1CCC[C@H]1C(=O)N[C@@H](CCC(N)=O)C(=O)NCC(=O)N1C[C@H](O)C[C@H]1C(N)=O` [compound 280] (H-GCRTGTCTVQ[Cit]LAHQIYQFTDKDKDNVAPRTNIGPQG[Hyp]-NH2; disulfide 2-7; N-terminus assumed), for which the EC50 in series [1] is over 5000 nM; in series [2], 0.024 nM. For the same molecule, the “Max ThT signal (%)” value in series [3] is reported as 26.450%.
As to `CC[C@H](C)[C@H](NC(=O)[C@H](CC(N)=O)NC(=O)[C@@H](NC(=O)[C@H](CCCNC(=N)N)NC(=O)[C@@H]1CCCN1C(=O)[C@H](C)NC(=O)[C@@H](NC(=O)[C@H](CC(N)=O)NC(=O)[C@H](CC(=O)O)NC(=O)[C@H](CCCCN)NC(=O)[C@H](CC(=O)O)NC(=O)[C@H](CCCCN)NC(=O)[C@H](CC(=O)O)NC(=O)[C@@H](NC(=O)[C@H](Cc1ccccc1)NC(=O)[C@H](CCC(N)=O)NC(=O)[C@H](Cc1ccc(O)cc1)NC(=O)[C@@H](NC(=O)[C@H](CCC(N)=O)NC(=O)[C@H](Cc1c[nH]cn1)NC(=O)[C@H](C)NC(=O)[C@H](CC(C)C)NC(=O)[C@H](Cc1c[nH]c2ccccc12)NC(=O)[C@H](CCC(N)=O)NC(=O)[C@@H](NC(=O)[C@@H](NC(=O)[C@@H]1CSSC[C@H](NC(=O)CN)C(=O)N[C@@H](CCCNC(=N)N)C(=O)N[C@@H]([C@@H](C)O)C(=O)NCC(=O)N[C@@H]([C@@H](C)O)C(=O)N1)[C@@H](C)O)C(C)C)[C@@H](C)CC)[C@@H](C)O)C(C)C)[C@@H](C)O)C(=O)NCC(=O)N1CCC[C@H]1C(=O)N[C@@H](CCC(N)=O)C(=O)NCC(=O)N1C[C@H](O)C[C@H]1C(N)=O` [compound 341] (H-GCRTGTCTVQWLAHQIYQFTDKDKDNVAPRTNIGPQG[Hyp]-NH2; disulfide 2-7; N-terminus assumed), the values for the EC50 in series [1] and in series [2] were over 5000 nM and 0.029 nM, respectively. The “Max ThT signal (%)” value in series [3] was 20.500%.
In the same order, the values of `CC[C@H](C)[C@H](NC(=O)[C@H](CCC(N)=O)NC(=O)[C@H](Cc1c[nH]cn1)NC(=O)[C@H](C)NC(=O)[C@H](CC(C)C)NC(=O)[C@H](CCCNC(=N)N)NC(=O)[C@H](CCC(N)=O)NC(=O)[C@@H](NC(=O)[C@@H](NC(=O)[C@@H]1CSSC[C@H](NC(=O)CN)C(=O)N[C@@H](CCCNC(=N)N)C(=O)N[C@@H](Cc2c[nH]c3ccccc23)C(=O)NCC(=O)N[C@@H]([C@@H](C)O)C(=O)N1)[C@@H](C)O)C(C)C)C(=O)N[C@@H](Cc1ccc(O)cc1)C(=O)N[C@@H](CCC(N)=O)C(=O)N[C@@H](Cc1ccccc1)C(=O)N[C@H](C(=O)N[C@@H](CC(=O)O)C(=O)N[C@@H](CCCCN)C(=O)N[C@@H](CC(=O)O)C(=O)N[C@@H](CCCCN)C(=O)N[C@@H](CC(=O)O)C(=O)N[C@@H](CC(N)=O)C(=O)N[C@H](C(=O)N[C@@H](C)C(=O)N1CCC[C@H]1C(=O)N[C@@H](CO)C(=O)N[C@@H](CO)C(=O)N[C@@H](CCCCN)C(=O)N[C@H](C(=O)N[C@@H](CO)C(=O)N1CCC[C@H]1C(=O)N[C@@H](CCC(N)=O)C(=O)N[C@H](C(=O)N1C[C@H](O)C[C@H]1C(N)=O)[C@@H](C)O)[C@@H](C)CC)C(C)C)[C@@H](C)O` [compound 202] (H-GCRWGTCTVQRLAHQIYQFTDKDKDNVAPSSKISPQT[Hyp]-NH2; disulfide 2-7) are over 5000 nM, 0.126 nM and 12.600%.
Turning to `CC[C@H](C)[C@H](NC(=O)[C@H](CCC(N)=O)NC(=O)[C@H](Cc1c[nH]cn1)NC(=O)[C@H](C)NC(=O)[C@H](CC(C)C)NC(=O)[C@H](Cc1c[nH]c2ccccc12)NC(=O)[C@H](CCC(N)=O)NC(=O)[C@@H](NC(=O)[C@@H](NC(=O)[C@@H]1CSSC[C@H](NC(=O)CN)C(=O)N[C@@H](CCCNC(=N)N)C(=O)N[C@@H]([C@@H](C)O)C(=O)NCC(=O)N[C@@H]([C@@H](C)O)C(=O)N1)[C@@H](C)O)C(C)C)C(=O)N[C@@H](Cc1ccc(O)cc1)C(=O)N[C@@H](CCC(N)=O)C(=O)N[C@@H](Cc1ccccc1)C(=O)N[C@H](C(=O)N[C@@H](CC(=O)O)C(=O)N[C@@H](CCCCN)C(=O)N[C@@H](CC(=O)O)C(=O)N[C@@H](CCCCN)C(=O)N[C@@H](CC(=O)O)C(=O)N[C@@H](CC(N)=O)C(=O)N[C@H](C(=O)N[C@@H](C)C(=O)N1CCC[C@H]1C(=O)N[C@@H](CCCNC(=N)N)C(=O)N[C@@H](CO)C(=O)N[C@@H](CCCCN)C(=O)N[C@H](C(=O)NCC(=O)N1CCC[C@H]1C(=O)N[C@@H](CC(N)=O)C(=O)NCC(=O)N1C[C@H](O)C[C@H]1C(N)=O)C(C)C)C(C)C)[C@@H](C)O` [compound 347] (H-GCRTGTCTVQWLAHQIYQFTDKDKDNVAPRSKVGPNG[Hyp]-NH2; disulfide 2-7; N-terminus assumed), the results for the EC50 in series [1] and in series [2] were over 5000 nM and 0.068 nM, respectively. Besides, the “Max ThT signal (%)” value in series [3] was found to be 15.500%.
